Reference: US10954246B2, “Compound of EOC315 Mod.I crystal form and preparation method thereof” (Taizhou EOC Pharma Co., Ltd., priority 2017, dated 2021)
Where a name gives a salt, the structure may show the parent alone.

Tests used:
[1] = Long-term stability study (25° C., RH 60%); assay type: physicochemical; conditions: for Related substance Impurity 5 / Related substance Impurity 6 / Related substance Maximum single impurity / Related substance Impurity 1 / Related substance Impurity 2 / Related substance Impurity 3 / Related substance Total impurity / Related substance Impurity 4 / Crystalline form: 25° C./RH 60%; for Related substance Impurity 5 / Related substance Impurity 6: limit 0.10%; for Related substance Maximum single impurity: limit 0.15%; for Related substance Impurity 1 / Related substance Impurity 2 / Related substance Impurity 3: limit 0.17%; for Related substance Total impurity: limit 1.0%; for Related substance Impurity 4: limit 3.0%; for Crystalline form: limit ModI
Experimental: Long-term stability over twelve months was evaluated at 25° C. and a relative humidity of 60%; or accelerated stability over six months was evaluated at 40° C. and a relative humidity of 75%.

[2] = test system: Colo-205 human CRC xenograft; assay: Colo-205 human CRC xenograft model, tumor microvessel histomorphometry (CD31); assay type: in vivo; conditions: for decrease of MVA: 3 days after the administration
Experimental: The EOC315 crystalline form Mod. […] Therefore, a study was conducted in a Colo-205 human CRC xenograft model to evaluate whether the anti-tumor activity observed in vivo is consistent with the hypothesis. The microvessel density of a tumor was determined by the quantitative histomorphometry after the endothelial cell marker CD31 was stained. Four hours after the first drug delivery, the declining level of the tumor MVA was further increased compared with each solvent control group (32%; P<0.05). Twenty-four hours after the administration, the declining level of the tumor MVA was further increased (53%; P<0.01).

[3] = Thermogravimetric analysis (TGA); assay type: physicochemical
Experimental: The DTA curve of a test sample has an endothermic peak at 198.1° C., which is consistent with the DSC result.

## CNC(=O)c1cc(OCc2nnc(Nc3ccc(Cl)cc3)c3ccoc23)ccn1 [EOC315 crystalline form Mod. I, 4-(4-chloroanilino)-7-(2-methylaminocarbonyl-4-oxymethyl)pyridylfuro[2,3-d]pyridazine mesylate]
[1]; Month 0, listed as 151211
  Related substance Impurity 5: 0.02%
  Related substance Impurity 6: 0.01%
  Related substance Maximum single impurity: 0.0079%
  Related substance Impurity 3: 0.016%
  Related substance Total impurity: 0.53%
  Related substance Impurity 4: 0.36%
[1]; Month 0, listed as 151212
  Related substance Impurity 5: 0.01%
  Related substance Impurity 6: Undetected
  Related substance Maximum single impurity: 0.012%
  Related substance Impurity 3: 0.011%
  Related substance Total impurity: 0.65%
  Related substance Impurity 4: 0.46%
[1]; Month 0, listed as 151213
  Related substance Impurity 5: Undetected
  Related substance Impurity 6: Undetected
  Related substance Maximum single impurity: 0.0085%
  Related substance Impurity 3: 0.011%
  Related substance Total impurity: 0.52%
  Related substance Impurity 4: 0.35%
[1]; Month 0
  Related substance Impurity 1: Undetected
  Related substance Impurity 2: Undetected
  Crystalline form: ModI
[1]; Month 3
  Related substance Impurity 6: Undetected
  Related substance Maximum single impurity: Undetected
  Related substance Impurity 1: Undetected
  Related substance Impurity 2: Undetected
  Related substance Impurity 3: Undetected
[1]; Month 3, listed as 151211
  Related substance Impurity 5: 0.01%
  Related substance Total impurity: 0.5%
  Related substance Impurity 4: 0.4%
[1]; Month 3, listed as 151212
  Related substance Impurity 5: 0.02%
  Related substance Total impurity: 0.6%
  Related substance Impurity 4: 0.5%
[1]; Month 3, listed as 151213
  Related substance Impurity 5: 0.01%
  Related substance Total impurity: 0.5%
  Related substance Impurity 4: 0.38%
[1]; Month 6
  Related substance Impurity 6: 0.01%
  Related substance Impurity 1: Undetected
  Crystalline form: ModI
[1]; Month 6, listed as 151211
  Related substance Impurity 5: Undetected
  Related substance Maximum single impurity: 0.013%
  Related substance Impurity 2: 0.0028%
  Related substance Impurity 3: 0.099%
  Related substance Total impurity: 0.73%
  Related substance Impurity 4: 0.42%
[1]; Month 6, listed as 151212
  Related substance Impurity 5: 0.02%
  Related substance Maximum single impurity: 0.070%
  Related substance Impurity 2: Undetected
  Related substance Impurity 3: 0.031%
  Related substance Total impurity: 0.88%
  Related substance Impurity 4: 0.54%
[1]; Month 6, listed as 151213
  Related substance Impurity 5: Undetected
  Related substance Maximum single impurity: 0.016%
  Related substance Impurity 2: Undetected
  Related substance Impurity 3: 0.033%
  Related substance Total impurity: 0.63%
  Related substance Impurity 4: 0.40%
[1]; Month 9, listed as 151211
  Related substance Impurity 5: 0.02%
  Related substance Impurity 6: Undetected
  Related substance Maximum single impurity: 0.013%
  Related substance Total impurity: 0.61%
  Related substance Impurity 4: 0.43%
[1]; Month 9, listed as 151212
  Related substance Impurity 5: 0.01%
  Related substance Impurity 6: 0.01%
  Related substance Maximum single impurity: Undetected
  Related substance Total impurity: 0.77%
  Related substance Impurity 4: 0.56%
[1]; Month 9, listed as 151213
  Related substance Impurity 5: Undetected
  Related substance Impurity 6: Undetected
  Related substance Maximum single impurity: Undetected
  Related substance Total impurity: 0.58%
  Related substance Impurity 4: 0.42%
[1]; Month 9
  Related substance Impurity 1: Undetected
  Related substance Impurity 2: Undetected
  Related substance Impurity 3: Undetected
[1]; Month 12, listed as 151211
  Related substance Impurity 5: 0.01%
  Related substance Impurity 6: 0.03%
  Related substance Total impurity: 0.63%
  Related substance Impurity 4: 0.46%
[1]; Month 12, listed as 151212
  Related substance Impurity 5: Undetected
  Related substance Impurity 6: 0.02%
  Related substance Total impurity: 0.80%
  Related substance Impurity 4: 0.58%
[1]; Month 12, listed as 151213
  Related substance Impurity 5: 0.01%
  Related substance Impurity 6: Undetected
  Related substance Total impurity: 0.58%
  Related substance Impurity 4: 0.42%
[1]; Month 12
  Related substance Maximum single impurity: Undetected
  Related substance Impurity 1: Undetected
  Related substance Impurity 2: Undetected
  Related substance Impurity 3: Undetected
  Crystalline form: ModI
[1]; long-term and accelerated stability
  stability of the crystalline form (conclusion from tables 4 and 5): thermodynamically stable form
[2]; at 4 hours
  decrease of MVA: 64%
[2]; at 6 hours
  decrease of MVA: 68%
[2]; conclusion from the xenograft results
  growth of tumor cells: significantly suppressed
[2]; four hours after the first drug delivery, P<0.05
  decline of tumor MVA vs solvent control: 32%
[2]; twenty-four hours after the administration, P<0.01
  decline of tumor MVA vs solvent control: 53%
[3]
  degradation temperature: about 241.71 °C
